From patent US10980805B2, “Aza-pyridone compounds and uses thereof” (Janssen BioPharma, Inc., priority 2013, dated 2021)
Like-named read-outs stand apart in the source and are kept apart here.

What was measured:
[1] = tested on: Influenza strain A549_A/WSN/33 (H1N1); assay: Influenza antiviral assay (neuraminidase fluorescence readout); format: cell-based, Influenza virus; conditions: read-out: % Inhibition (EC50 class, Table 2)
[2] = target: Full length EN PA (influenza PA endonuclease) (Influenza A virus, UniProt P15659); assay: EN PA FRET inhibition assay; format: biochemical; conditions: FRET probe, mean of a minimum of two independent experiments, read-out: Potency (IC50 class, Table 3)

Row | SMILES | EC50 ([1]; Influenza A virus) [nM] | IC50 [2] [nM] | EC50 [1] [nM]
1 | CC(C)N1C[C@H](C(c2ccccc2)c2cccc(Cl)c2)n2ncc(=O)c(O)c2C1=O (single isomer, unassigned) [Compound 73-A] | < 20000 | < 250 | 
2 | CC(C)N1C[C@@H](C(c2ccccc2)c2cccc(Cl)c2)n2ncc(=O)c(O)c2C1=O (single isomer, unassigned) [Compound 73-B] | < 20000 | 250 to 1000 | 
3 | CC(C)N1C[C@H](C(c2ccccc2)c2cccc(Cl)c2)n2ncc(=O)c(O)c2C1=O (single isomer, unassigned) [Compound 82-A] |  | < 250 | < 20000
4 | CC(C)N1C[C@@H](C(c2ccccc2)c2cccc(Cl)c2)n2ncc(=O)c(O)c2C1=O (single isomer, unassigned) [Compound 82-B] |  | 250 to 1000 | 
5 | CN1C[C@H](C(c2ccccc2)c2ccccc2)n2ncc(=O)c(O)c2C1=O [Compound 1-A] | < 20000 | < 250 | 
6 | CN1C[C@@H](C(c2ccccc2)c2ccccc2)n2ncc(=O)c(O)c2C1=O [Compound 1-B] | < 20000 | 250 to 1000 | 
7 | CN1CC(C(c2ccccc2)c2ccccc2)n2ncc(=O)c(O)c2C1=O (centres unmarked) [Compound 1] | < 20000 | < 250 | 
8 | CN1CC(Cc2ccccc2)n2ncc(=O)c(O)c2C1=O (centres unmarked) [Compound 2] |  | < 250 | 
9 | CN1CC(CCc2ccccc2)n2ncc(=O)c(O)c2C1=O (centres unmarked) [Compound 3] |  | < 250 | 
10 | Cc1ccccc1CC1CN(C)C(=O)c2c(O)c(=O)cnn21 (centres unmarked) [Compound 4] |  | < 250 | 
11 | CCN1C[C@H](C(c2ccccc2)c2ccccc2)n2ncc(=O)c(O)c2C1=O [Compound 5-A] | < 20000 | < 250 | 
12 | CCN1C[C@@H](C(c2ccccc2)c2ccccc2)n2ncc(=O)c(O)c2C1=O [Compound 5-B] | < 20000 | 250 to 1000 | 
13 | CCN1CC(C(c2ccccc2)c2ccccc2)n2ncc(=O)c(O)c2C1=O (centres unmarked) [Compound 5] | < 20000 | < 250 | 
14 | CC(C)N1C[C@@H](C(c2ccccc2)c2ccccc2)n2ncc(=O)c(O)c2C1=O [Compound 6-B] | < 20000 | 250 to 1000 | 
15 | CC(C)N1CC(C(c2ccccc2)c2ccccc2)n2ncc(=O)c(O)c2C1=O (centres unmarked) [Compound 6] | < 20000 | < 250 | 
16 | CN1C[C@@H](C2c3ccccc3CCc3ccccc32)n2ncc(=O)c(O)c2C1=O [Compound 7-B] | < 20000 | < 250 | 
17 | CN1CC(C2c3ccccc3CCc3ccccc32)n2ncc(=O)c(O)c2C1=O (centres unmarked) [Compound 7] | < 20000 | < 250 | 
18 | O=C1NCC(C(c2ccccc2)c2ccccc2)n2ncc(=O)c(O)c21 (centres unmarked) [Compound 8] | < 20000 | < 250 | 
19 | CN1C[C@H]([C@@H](c2ccccc2)c2cccc(Cl)c2)n2ncc(=O)c(O)c2C1=O [Compound 9-A] | < 20000 | < 250 | 
20 | CN1C[C@H]([C@H](c2ccccc2)c2cccc(Cl)c2)n2ncc(=O)c(O)c2C1=O [Compound 9-B] | < 20000 | < 250 | 

Row | SMILES | EC50 ([1]; Influenza A virus) [nM] | IC50 [2] [nM] | EC50 [1] [nM]
21 | CN1CC(C(c2ccccc2)c2cccc(Cl)c2)n2ncc(=O)c(O)c2C1=O (centres unmarked) [Compound 9] | < 20000 | < 250 | 
22 | O=C1NCC(C2c3ccccc3CSc3c(Cl)cccc32)n2ncc(=O)c(O)c21 (centres unmarked) [Compound 10] | < 20000 | < 250 | 
23 | CC(C)N1CC(=C(c2ccccc2)c2ccccc2)n2ncc(=O)c(O)c2C1=O [Compound 11] |  | < 250 | 
24 | CCN1C[C@H]([C@@H](c2ccccc2)c2cccc(Cl)c2)n2ncc(=O)c(O)c2C1=O [Compound 12-A] | < 20000 | < 250 | 
25 | CCN1C[C@H]([C@H](c2ccccc2)c2cccc(Cl)c2)n2ncc(=O)c(O)c2C1=O [Compound 12-B] | < 20000 | < 250 | 
26 | CCN1C[C@H](C(c2ccccc2)c2cccc(Cl)c2)n2ncc(=O)c(O)c2C1=O (some centres unmarked) [Compound 12-C] |  | < 250 | 
27 | CCN1C[C@@H]([C@@H](c2ccccc2)c2cccc(Cl)c2)n2ncc(=O)c(O)c2C1=O [Compound 12-D] |  | 250 to 1000 | 
28 | CCN1C[C@@H]([C@H](c2ccccc2)c2cccc(Cl)c2)n2ncc(=O)c(O)c2C1=O [Compound 12-E] |  | < 250 | 
29 | CCN1CC(C(c2ccccc2)c2cccc(Cl)c2)n2ncc(=O)c(O)c2C1=O (centres unmarked) [Compound 12] | < 20000 | < 250 | 
30 | O=C1c2c(O)c(=O)cnn2[C@@H](C2c3ccccc3CCc3ccccc32)CN1Cc1ccccc1 [Compound 13-A] | < 20000 | < 250 | 
31 | O=C1c2c(O)c(=O)cnn2[C@H](C2c3ccccc3CCc3ccccc32)CN1Cc1ccccc1 [Compound 13-B] | < 20000 | 250 to 1000 | 
32 | O=C1c2c(O)c(=O)cnn2C(C2c3ccccc3CCc3ccccc32)CN1Cc1ccccc1 (centres unmarked) [Compound 13] | < 20000 | < 250 | 
33 | CCN1C[C@H](C2c3ccccc3CCc3ccccc32)n2ncc(=O)c(O)c2C1=O [Compound 14-A] | < 20000 | < 250 | 
34 | CCN1C[C@@H](C2c3ccccc3CCc3ccccc32)n2ncc(=O)c(O)c2C1=O [Compound 14-B] |  | < 250 | 
35 | CCN1CC(C2c3ccccc3CCc3ccccc32)n2ncc(=O)c(O)c2C1=O (centres unmarked) [Compound 14] | < 20000 | < 250 | 
36 | CC(N1CC(=C(c2ccccc2)c2ccccc2)n2ncc(=O)c(O)c2C1=O)C(F)(F)F (centres unmarked) [Compound 15] |  | ≥ 1000 | 
37 | O=C1NCC(C2c3ccccc3CSc3cc(Cl)ccc32)n2ncc(=O)c(O)c21 (centres unmarked) [Compound 16] | < 20000 | 250 to 1000 | 
38 | CC(C)N1C[C@H](C2c3ccccc3CCc3ccccc32)n2ncc(=O)c(O)c2C1=O [Compound 17-A] |  | < 250 | 
39 | CC(C)N1C[C@@H](C2c3ccccc3CCc3ccccc32)n2ncc(=O)c(O)c2C1=O [Compound 17-B] | < 20000 | < 250 | 
40 | CC(C)N1CC(C2c3ccccc3CCc3ccccc32)n2ncc(=O)c(O)c2C1=O (centres unmarked) [Compound 17] | < 20000 | < 250 | 

Row | SMILES | EC50 ([1]; Influenza A virus) [nM] | IC50 [2] [nM] | EC50 [1] [nM]
41 | C[C@H](N1C[C@H](C(c2ccccc2)c2ccccc2)n2ncc(=O)c(O)c2C1=O)C(F)(F)F [Compound 18-A] | < 20000 | < 250 | 
42 | C[C@@H](N1C[C@@H](C(c2ccccc2)c2ccccc2)n2ncc(=O)c(O)c2C1=O)C(F)(F)F [Compound 18-B] | < 20000 | < 250 | 
43 | CC(N1CC(C(c2ccccc2)c2ccccc2)n2ncc(=O)c(O)c2C1=O)C(F)(F)F (centres unmarked) [Compound 18] | < 20000 | < 250 | 
44 | CN1CC(Cc2ccccc2-c2ccccc2)n2ncc(=O)c(O)c2C1=O (centres unmarked) [Compound 19] | < 20000 | < 250 | 
45 | CC(C)N1CC(C(c2ccccc2)c2cccc(Cl)c2)n2ncc(=O)c(O)c2C1=O (centres unmarked) [Compound 20] | < 20000 | < 250 | 
46 | CCN1C[C@@H](C(c2cccc(F)c2)c2cccc(F)c2)n2ncc(=O)c(O)c2C1=O [Compound 21-B] | < 20000 | < 250 | 
47 | CCN1CC(C(c2cccc(F)c2)c2cccc(F)c2)n2ncc(=O)c(O)c2C1=O (centres unmarked) [Compound 21] | < 20000 | < 250 | 
48 | CN1CC(C(c2cccc(F)c2)c2cccc(F)c2)n2ncc(=O)c(O)c2C1=O (centres unmarked) [Compound 22] | < 20000 | < 250 | 
49 | CN1CC(C(c2ccccc2)c2cccc(F)c2)n2ncc(=O)c(O)c2C1=O (centres unmarked) [Compound 23] | < 20000 | < 250 | 
50 | CCN1CC(C(c2ccccc2)c2cccc(F)c2)n2ncc(=O)c(O)c2C1=O (centres unmarked) [Compound 24] | < 20000 | < 250 | 
51 | Cc1cccc(C(c2cccc(C)c2)C2CN(C)C(=O)c3c(O)c(=O)cnn32)c1 (centres unmarked) [Compound 25] | < 20000 | < 250 | 
52 | COc1cccc(C(c2ccccc2)C2CN(C)C(=O)c3c(O)c(=O)cnn32)c1 (centres unmarked) [Compound 26] | < 20000 | < 250 | 
53 | Cc1cccc(C(c2ccccc2)C2CN(C)C(=O)c3c(O)c(=O)cnn32)c1 (centres unmarked) [Compound 27] | < 20000 | < 250 | 
54 | CN1CC(C(c2cccc(Cl)c2)c2cccc(Cl)c2)n2ncc(=O)c(O)c2C1=O (centres unmarked) [Compound 28] | < 20000 | < 250 | 
55 | CC(C)N1C[C@@H](C(c2cccc(F)c2)c2cccc(F)c2)n2ncc(=O)c(O)c2C1=O [Compound 41-B] |  | 250 to 1000 | 
56 | CCC(CC)N1CC(C(c2ccccc2)c2ccccc2)n2ncc(=O)c(O)c2C1=O (centres unmarked) [Compound 43] |  | < 250 | 
57 | CC(C)N1CC(C(c2cccc(Cl)c2)c2cccc(Cl)c2)n2ncc(=O)c(O)c2C1=O (centres unmarked) [Compound 44] |  | < 250 | 
58 | [2H]c1c([2H])c([2H])c(C(c2c([2H])c([2H])c([2H])c([2H])c2[2H])[C@H]2CN(C(C)C)C(=O)c3c(OC(=O)C(C)C)c(=O)cnn32)c([2H])c1[2H] [Compound 130] | < 20000 |  | 
